Reference: patent publication US8940788B2, “Anti-angiogenic composition containing macrolactin A and a derivative thereof as active ingredients” (Daewoo Pharmaceutical Ind. Co., Ltd., priority 2010, dated 2015)

Legend:
[1] = test system: chorioallantoic membrane (CAM) neovascular formation induced by IL-8; experiment: CAM analysis of suppressive effect on angiogenesis, neovascular formation induced by IL-8; type: in vivo, chicken; conditions: IL-8 20 ng/CAM; various concentrations of compound; three days after treatment
Procedure: (§1) In order to confirm an anti-angiogenic effect of the macrolactin compounds in in vivo test, chorioallantoic membrane (CAM) analysis was carried out (Nguyen M. et al., Microvascular Res., 47, pp. 31-40, 1994). 6±1 fertile eggs were used per group.
(§2) Fertile chicken eggs were cultured while maintaining the temperature of 37° C. and the relative humidity of 55%. On the third day of culture, a first small hole was made in the air sac part with a hypodermic needle (Green Cross Medical Corporation, Korea), and a second hole was made in the plat part of the fertile eggs to make a window.
(§3) The CAM was separated from the eggshell by expelling the air through the first hole in the air sac, and then the part was cut with a grinding wheel (Multipro 395JA, Dremel, Mexico) to make a window.
(§4) A Whatman filter disc #1 (Whatman, USA) was treated with 3 mg/ml of cortisone acetate and dried. The filter disc was treated with 10 μl of VEGF, TNF-α or IL-8 (20 ng/CAM).
(§5) Through the pre-made window, the filter disc was put on blood vessel, and then treated with various concentrations of MA, MMA or SMA which was dissolved in DMSO and diluted with PBS.
(§6) Three days after treatment, the CAM part with the filter disc was separated and washed with phosphate buffer solution. […]

[2] = test system: chorioallantoic membrane (CAM) neovascular formation induced by VEGF; experiment: CAM analysis of suppressive effect on angiogenesis, neovascular formation induced by VEGF; type: in vivo, chicken; conditions: VEGF 20 ng/CAM; for suppression of neovascular formation caused by VEGF (number of blood vessel branches): various concentrations of compound, three days after treatment
Procedure: as §1, §2, §3, §4, §5
Three days after treatment, the CAM part with the filter disc was separated and washed with phosphate buffer solution. The photographs were taken by using a stereomicroscope (Leica, Wetzlar, Germany) and Image-Pro Plus software (Media Cybernetics; Silver Spring, Md., USA) to determine the number of bleed vessel branches and to analyze the data.
All data were represented as mean±standard error of mean, and the statistical analysis was done as one-way ANOVA by using GraphPad Prism 4 Software (San Diego, Calif., USA). Multiple comparisons between the differences of each group were made by using the NK (Newman-Keuls) method. When p-value was less than 0.05, the data were regarded as statistically significant.

[3] = test system: Human fibrosarcoma cells (HT-1080); experiment: Infiltration test of fibrosarcoma cells (suppressive effect on metastasis of cancer), transwell with Matrigel; type: cell-based; conditions: 18 hours
Procedure: Human fibrosarcoma cells (HT-1080) were cultured in DMEM containing 10% fetal bovine serum (FBS) and 1% penicillin/streptomycin (PS) under the condition of 37° C. and 5% CO2. When the cells grew to fill 80% or more of the culture flask, they were subcultured at a ratio of 1:3 and used in this test. In order to confirm the suppressive effect of the macrolactin compounds on metastasis of cancer in in vitro experiments, an infiltration test of fibrosarcoma cells was carried out by using a 24-well transwell attached with a polycarbonate filter of […] pore size. Firstly, the bottom side of the filter was coated with Collagen Type I (0.5 mg/ml), and then the upper side of the filter was coated with Matrigel (1.5 mg/ml). After coating, the lower part of the insert was filled with a medium containing 5% FBS, and the upper part was filled with serum-free medium human fibrosarcoma cells (HT-1080) which were incubated for 18 hours in a cell incubator. The human fibrosarcoma cells infiltrated into the bottom side of the filter were fixed with methanol and then dyed with hematoxylin and eosin. The infiltrated cells were observed under a microscope, and 3 parts were randomly selected from each filter to take photographs and determine the number of cells (Kim, M. S. et al., Cancer Res., 63, pp. 5454-5461, 2003; Park, B. C. et al., Eur. J. Pharm., 567, pp. 193-197, 2007).

[4] = test system: chorioallantoic membrane (CAM) neovascular formation induced by TNF-α; experiment: CAM analysis of suppressive effect on angiogenesis, neovascular formation induced by TNF-α; type: in vivo, chicken; conditions: TNF-α 20 ng/CAM; various concentrations of compound; three days after treatment
Procedure: as §1, §2, §3, §4, §5, §6

| Compound | suppression of neovascular formation caused by IL-8 (number of blood vessel branches) [1] | suppression of neovascular formation caused by VEGF (number of blood vessel branches) [2] | dose dependence of suppression of metastasis (infiltration) of fibrosarcoma cells induced by 5% FBS [3] | suppression of neovascular formation caused by TNF-α (number of blood vessel branches) [4] | dose dependence of suppression of neovascular formation caused by VEGF ([2]; various concentrations) | suppressive effect on metastasis (infiltration) of fibrosarcoma cells induced by 5% FBS ([3]; compound 1 μM) | suppressive effect on metastasis (infiltration) of fibrosarcoma cells induced by 5% FBS ([3]; compound 5 μM) |
| --- | --- | --- | --- | --- | --- | --- | --- |
| CC1CCC/C=C/C=C/[C@H](O)C[C@@H](O)C/C=C\C=C\[C@@H](O)C/C=C/C=C\C(=O)O1 (stereo partly drawn) [MA, macrolactin A] | strongly suppressed | strongly suppressed | in a dose-dependent way | strongly suppressed | – | – | – |
| C[C@@H]1CCC/C=C/C=C/[C@H](O)C[C@@H](O)C/C=C\C=C\[C@@H](OC(=O)CC(=O)O)C/C=C/C=C\C(=O)O1 [MMA, 7-O-malonyl macrolactin A] | – | strongly suppressed | – | – | – | – | – |
| C[C@@H]1CCC/C=C/C=C/[C@H](O)C[C@@H](O)C/C=C\C=C\[C@@H](OC(=O)CCC(=O)O)C/C=C/C=C\C(=O)O1 [SMA, 7-O-succinyl macrolactin A] | strongly suppressed | strongly suppressed | in a dose-dependent way | strongly suppressed | suppressed neovascular formation in a dose-dependent way | significant suppressive effect | superior suppressive effect on the metastasis comparable to that of batimastat |
